The nature of the data set: Stability of Tc-99m labeled compound, labeling purity by HPLC. The class given is physicochemical. The settings on record: 99mTc-labeled, cysteine and VB1, until 4 hours (Table 11). The method, then:
2 mL of Tc-99m was added dropwise to a lyophilized vial including 0.1 mg of GP-104, 15 μg of SnCl2, and 10 μg of cysteine, the vial was allowed to stand at room temperature for 10 minutes, and the reaction was terminated by adjusting pH to 7 using a NaOH solution. Labeling purity was confirmed to be 93.21% by HPLC (analysis conditions: Luna C18 250×4.6 mm, phosphate buffer:acetonitrile (100:0, 0 to 5 minutes; 80:20, 5 to 10 minutes; 80:20, 17 minutes; 100:0, 17.1 minutes). 100:0. 20 min), 1.0 mL/min, UV=280 nm).
In order to confirm the effect of cysteine addition after the reaction, the following experiment was performed: 0.1 mg of GP-104 was dissolved in water for injection, the pH was adjusted to about 3.5 when 10 μL of SnCl2 (1.5 mg/mL) and 2 mL of Tc-99m were added thereto, and the resulting mixture was allowed to stand at room temperature for 10 minutes. The reaction was terminated by adjusting the pH to 7 using a NaOH solution and 10 μL of cysteine (1.0 mg/mL). Labeling purity was confirmed to be 91.4% using HPLC in the same manner as in Example 2-7.
After 0.1 mg of GP-104 was dissolved in water for injection, pH was adjusted to about 3.5 and the resulting solution was allowed to stand at room temperature for 10 minutes when 10 μL of SnCl2 (1.5 mg/mL), 10 μL of cysteine (1.0 mg/mL) and 2 mL of Tc-99m were added thereto, and the reaction was terminated by adjusting the pH to 7 using a NaOH solution. Labeling purity was confirmed to be 94.84% using HPLC in the same manner as in Example 2-7.
HCl and NaOH was additionally added dropwise to the solution of Example 2-8 to perform a stability evaluation by adjusting the final pH of the solution to acidic (pH 5.5) and basic (pH 8.5) conditions, and labeling purity was confirmed using HPLC in the same manner as in Example 2-7.
HCl and NaOH was additionally added dropwise to the solution of Example 2-9 to perform a stability evaluation by adjusting the final pH of the solution to acidic (pH 5.5) and basic (pH 8.5) conditions, and labeling purity was confirmed using HPLC in the same manner as in Example 2-7.
HCl and NaOH was additionally added dropwise to the solution of Example 2-10 to perform a stability evaluation by adjusting the final pH of the solution to acidic (pH 5.5) and basic (pH 8.5) conditions, and labeling purity was confirmed using HPLC in the same manner as in Example 2-7.
0.1 mg of GP-105 was dissolved in water for injection, the pH was adjusted to about 3.5 when 10 μL of SnCl2 (1.5 mg/mL) and 2 mL of Tc-99m were added thereto, and the resulting mixture was allowed to stand at room temperature for 10 minutes. The reaction was terminated by adjusting the pH to 7 using a NaOH solution and 10 μL of cysteine (1.0 mg/mL). Labeling purity was confirmed to be 98.1% using HPLC in the same manner as in Example 2-7.
HCl and NaOH was additionally added dropwise to the solution of Example 2-12 to perform a stability evaluation by adjusting the final pH of the solution to acidic (pH 5.5) and basic (pH 8.5) conditions, and labeling purity was confirmed using HPLC in the same manner as in Example 2-7.
HCl and NaOH was additionally added dropwise to the solution of Example 2-13 to perform a stability evaluation by adjusting the final pH of the solution to acidic (pH 5.5) and basic (pH 8.5) conditions, and labeling purity was confirmed using HPLC in the same manner as in Example 2-7.
HCl and NaOH was additionally added dropwise to the solution of Example 2-14 to perform a stability evaluation by adjusting the final pH of the solution to acidic (pH 5.5) and basic (pH 8.5) conditions, and labeling purity was confirmed using HPLC in the same manner as in Example 2-7.

A value given as a limit tells only on which side of the number the result lay.

In the case of `O=C(O)C[C@H](NC(=O)[C@@H]1CCCN(C(=O)CCC2CCNCC2)C1)c1cncc(OCCNC(=O)CN(CC(=O)O)CC(=O)O)c1` [GP-105, 2,2′-((2-((2-((5-((S)-2-carboxy-1-((R)-1-(3-(piperidin-4-yl)propanoyl)piperidine-3-carboxamido)ethyl)pyridin-3-yl)oxy)ethyl)amino)-2-oxoethyl)azanediyl)diacetic acid], the radiochemical purity reads like this: (acidic conditions) ≥ 98%; (basic conditions) ≥ 90%; (pH of 7) ≥ 94%.
